Holding throughout (assay type): binding
Assay [1] concerns the target T1, PCSK9 (Homo sapiens, UniProt Q8NBP7).
T1 construct: biotin (biotinylated); purchased
Description: PCSK9 Alexa FRET Standard TR-FRET assay. Conditions: Ki calculated from IC50 and KD of AF cyclic peptide Reagent A; 0.5 nM PCSK9, 20 nM AF cyclic peptide; read-out: Alexa FRET Stdt TR-FRET. The gist of the method: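 TR-FRET displacement with final 0.5 nM biotinylated PCSK9, 1.25 nM streptavidin-Eu and 20 nM AlexaFluor cyclic peptide in 50 mM HEPES pH 7.4, 0.15 M NaCl, 5 mM CaCl2, 0.01% BSA, 0.01% P20; ≥2 h at room temperature. IC50 by sigmoidal fit, converted to Ki (nM) using tracer KD.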

For assay [2], the target named is T1, PCSK9. Description: PCSK9 Alexa FRET Plus TR-FRET assay. The essentials: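 TR-FRET competition between europium-labeled PCSK9 and AlexaFluor-tagged cyclic peptide (prepared at 1920 nM stock), incubated at least 2 h at room temperature. IC50 from sigmoidal nonlinear fit converted to Ki using the peptide KD; falling europium counts flag false-positive inhibition; values reported in nM.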

Assay [3] concerns the target T1, PCSK9. Description: PCSK9 Alexa FRET Ultra TR-FRET assay. The essentials: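 Competition of compounds with AlexaFluor-tagged cyclic peptide (1920 nM solution, not final) for europium-labeled PCSK9, read by TR-FRET after at least 2 h at room temperature. IC50 from sigmoidal fit, converted to Ki (nM) using peptide KD; falling europium counts flag false positives.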

T1 sequence (Q8NBP7 153-692): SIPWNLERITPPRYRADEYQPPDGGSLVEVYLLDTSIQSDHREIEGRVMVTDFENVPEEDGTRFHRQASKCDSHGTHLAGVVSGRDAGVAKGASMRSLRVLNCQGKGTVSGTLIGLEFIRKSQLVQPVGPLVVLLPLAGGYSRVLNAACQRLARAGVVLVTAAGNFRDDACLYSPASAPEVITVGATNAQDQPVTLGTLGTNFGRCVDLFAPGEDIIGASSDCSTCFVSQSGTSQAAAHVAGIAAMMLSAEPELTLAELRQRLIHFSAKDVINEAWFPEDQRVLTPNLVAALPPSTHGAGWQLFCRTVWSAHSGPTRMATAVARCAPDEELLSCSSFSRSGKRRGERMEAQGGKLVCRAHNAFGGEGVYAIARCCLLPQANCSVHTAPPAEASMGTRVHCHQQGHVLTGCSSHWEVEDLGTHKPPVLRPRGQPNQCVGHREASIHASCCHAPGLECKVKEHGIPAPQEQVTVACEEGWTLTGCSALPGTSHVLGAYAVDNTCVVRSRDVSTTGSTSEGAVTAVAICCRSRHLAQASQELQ

Consider `COc1ccc(C[C@@H]2NC(=O)[C@H]([C@@H](C)O)NC(=O)[C@@H]3[C@@H]4CCN3C(=O)[C@@H]3Cc5cn(c6ccc(F)cc56)CCCCCCN(Cc5ccc(cc5)CCNC(=O)[C@]5(C)CCCN5C2=O)C(=O)CCC(=O)N[C@@H](C)C(=O)N[C@H](CNC(=O)COCCOCC[N+](C)(C)CCOCCNC(=O)COCCOCCNC(=O)COCCOCCNC(=O)CC[C@H](NC(=O)CCCCCCCCCCCCCCC(=O)O)C(=O)O)C(=O)N[C@@H](Cc2cccc(c2)CNC(=O)CO4)C(=O)N3)cc1` [compound 45], for which the Ki at PCSK9 [1] is less than 1260 pM; at PCSK9 [2] (Ki calculated from IC50 and KD of AF cyclic peptide Reagent B, 0.5 nM PCSK9, 960 nM AF cyclic peptide, read-out: Alexa FRET Plus TR-FRET) it was less than 6 pM; on PCSK9 [3] (Ki Ultra, calculated from IC50 and KD of AF cyclic peptide, 0.5 nM PCSK9, 960 nM AF cyclic peptide, read-out: Alexa FRET Ultra TR-FRET) it was 2 pM.
As to `COc1ccc(C[C@@H]2NC(=O)[C@H]([C@@H](C)O)NC(=O)[C@@H]3[C@@H]4CCN3C(=O)[C@@H]3Cc5cn(c6ccc(F)cc56)C/C=C/CCCN(Cc5ccc(cc5)CCNC(=O)[C@]5(C)CCCN5C2=O)C(=O)CCC(=O)N[C@@H](C)C(=O)N[C@H](CNC(=O)CCOCCOCC[N+](C)(C)CCNC(=O)COCCOCCNC(=O)COCCOCCNC(=O)CC[C@H](NC(=O)CCCCCCCCCCCCCCC(=O)O)C(=O)O)C(=O)N[C@@H](Cc2cccc(c2)CNC(=O)CO4)C(=O)N3)cc1` [compound 46], the Ki is less than 1260 pM at PCSK9 [1], less than 6 pM on PCSK9 [2] and 1 pM on PCSK9 [3].
